Legend:
WEE1 = biological target: T1, WEE1 (Homo sapiens, UniProt P30291+Q96SW2); test: Western-blot assay, substrate protein degradation in hPBMCs: WEE1; format: cell-based; details: for substrate protein remaining % WEE1: 24 hours of compound treatment, 50 nM and 500 nM; for WEE1 substrate protein remaining %: compounds at 50 nM and 500 nM, 24 hours
T1 construct: effects of the compounds of the present disclosure on the expression of target proteins in cells; endogenous in cells; host or cells: human PBMCs (hPBMCs)
T1 sequence (P30291 whole entry): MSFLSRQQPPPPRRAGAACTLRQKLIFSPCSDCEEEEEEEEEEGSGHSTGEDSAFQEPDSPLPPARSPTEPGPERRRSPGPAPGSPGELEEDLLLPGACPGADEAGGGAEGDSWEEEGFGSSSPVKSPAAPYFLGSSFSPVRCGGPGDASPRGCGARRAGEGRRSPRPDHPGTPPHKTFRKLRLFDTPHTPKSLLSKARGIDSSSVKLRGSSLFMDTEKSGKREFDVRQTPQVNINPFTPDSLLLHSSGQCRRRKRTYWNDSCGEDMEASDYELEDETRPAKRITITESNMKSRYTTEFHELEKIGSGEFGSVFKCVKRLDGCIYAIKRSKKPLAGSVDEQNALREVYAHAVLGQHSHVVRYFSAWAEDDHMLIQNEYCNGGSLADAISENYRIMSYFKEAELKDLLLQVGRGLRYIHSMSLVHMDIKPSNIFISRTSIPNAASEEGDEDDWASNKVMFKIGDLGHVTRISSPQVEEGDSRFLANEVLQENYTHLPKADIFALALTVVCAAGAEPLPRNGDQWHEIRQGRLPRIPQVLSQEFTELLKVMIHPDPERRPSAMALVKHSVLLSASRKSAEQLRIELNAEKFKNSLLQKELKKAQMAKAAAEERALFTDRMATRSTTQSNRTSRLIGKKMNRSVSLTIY
T1 sequence (Q96SW2 whole entry): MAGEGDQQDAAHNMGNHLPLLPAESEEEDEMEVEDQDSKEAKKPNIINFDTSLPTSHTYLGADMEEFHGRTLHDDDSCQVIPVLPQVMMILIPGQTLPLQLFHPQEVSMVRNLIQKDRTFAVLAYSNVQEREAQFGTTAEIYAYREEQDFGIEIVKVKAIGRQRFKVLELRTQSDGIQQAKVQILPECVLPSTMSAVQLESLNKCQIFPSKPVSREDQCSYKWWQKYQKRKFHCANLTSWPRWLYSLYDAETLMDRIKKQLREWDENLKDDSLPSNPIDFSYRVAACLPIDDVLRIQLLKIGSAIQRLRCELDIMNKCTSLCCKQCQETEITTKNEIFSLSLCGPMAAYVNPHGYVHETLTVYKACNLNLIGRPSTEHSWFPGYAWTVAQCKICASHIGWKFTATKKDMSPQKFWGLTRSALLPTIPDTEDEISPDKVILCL
T1 sequence (Q16531 whole entry partner): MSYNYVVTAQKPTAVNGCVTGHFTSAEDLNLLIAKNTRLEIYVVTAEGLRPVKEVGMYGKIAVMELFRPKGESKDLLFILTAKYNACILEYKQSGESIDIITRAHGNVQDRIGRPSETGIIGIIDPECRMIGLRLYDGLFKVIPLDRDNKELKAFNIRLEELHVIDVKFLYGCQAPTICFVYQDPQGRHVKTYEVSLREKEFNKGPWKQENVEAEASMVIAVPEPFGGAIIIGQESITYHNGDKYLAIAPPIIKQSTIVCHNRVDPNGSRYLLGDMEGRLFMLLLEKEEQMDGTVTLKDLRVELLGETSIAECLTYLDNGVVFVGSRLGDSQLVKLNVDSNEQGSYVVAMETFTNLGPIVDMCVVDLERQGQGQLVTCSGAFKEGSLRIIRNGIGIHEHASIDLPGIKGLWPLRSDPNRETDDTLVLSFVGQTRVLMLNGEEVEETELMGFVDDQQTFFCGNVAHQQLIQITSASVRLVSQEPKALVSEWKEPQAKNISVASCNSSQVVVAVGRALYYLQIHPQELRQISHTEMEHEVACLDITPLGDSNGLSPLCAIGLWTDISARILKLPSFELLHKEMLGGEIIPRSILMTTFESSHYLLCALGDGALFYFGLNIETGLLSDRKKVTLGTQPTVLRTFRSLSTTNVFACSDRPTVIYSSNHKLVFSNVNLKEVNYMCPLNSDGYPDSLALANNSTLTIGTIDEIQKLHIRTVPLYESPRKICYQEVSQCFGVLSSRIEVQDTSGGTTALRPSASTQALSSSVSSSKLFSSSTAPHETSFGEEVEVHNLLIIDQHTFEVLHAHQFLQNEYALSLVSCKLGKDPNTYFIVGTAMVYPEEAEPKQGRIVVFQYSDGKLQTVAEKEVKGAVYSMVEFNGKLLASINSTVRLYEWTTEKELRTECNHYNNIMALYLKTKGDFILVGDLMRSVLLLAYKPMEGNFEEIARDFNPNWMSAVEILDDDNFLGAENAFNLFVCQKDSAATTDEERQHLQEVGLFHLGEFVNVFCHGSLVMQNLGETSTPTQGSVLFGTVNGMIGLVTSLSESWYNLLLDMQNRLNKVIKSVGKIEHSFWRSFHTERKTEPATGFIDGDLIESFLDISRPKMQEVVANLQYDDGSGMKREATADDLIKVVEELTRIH

IKZF1 = biological target: T2, IKZF1 (Homo sapiens, UniProt Q13422+Q96SW2); test: Western-blot assay, substrate protein degradation in hPBMCs: IKZF1; format: cell-based; details: for substrate protein remaining % IKZF1: 24 hours of compound treatment, 50 nM and 500 nM; for IKZF1 substrate protein remaining %: compounds at 50 nM and 500 nM, 24 hours
T2 construct: effects of the compounds of the present disclosure on the expression of target proteins in cells; endogenous in cells; host or cells: human PBMCs (hPBMCs)
T2 sequence (Q13422 whole entry): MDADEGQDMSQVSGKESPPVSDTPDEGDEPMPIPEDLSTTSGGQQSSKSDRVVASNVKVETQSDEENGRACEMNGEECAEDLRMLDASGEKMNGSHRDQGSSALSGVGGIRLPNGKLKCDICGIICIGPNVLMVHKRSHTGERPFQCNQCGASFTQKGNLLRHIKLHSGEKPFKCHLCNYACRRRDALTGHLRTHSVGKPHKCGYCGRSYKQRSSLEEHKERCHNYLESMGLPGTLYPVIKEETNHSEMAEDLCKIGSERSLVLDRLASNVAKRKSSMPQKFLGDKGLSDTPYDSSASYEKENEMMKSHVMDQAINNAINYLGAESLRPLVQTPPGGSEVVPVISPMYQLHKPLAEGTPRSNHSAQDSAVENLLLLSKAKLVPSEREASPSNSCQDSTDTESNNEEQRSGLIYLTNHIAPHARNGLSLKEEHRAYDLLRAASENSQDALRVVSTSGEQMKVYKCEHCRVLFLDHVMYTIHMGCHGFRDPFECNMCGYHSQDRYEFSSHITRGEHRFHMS
T2 sequence (Q96SW2 whole entry): as the sequence (Q96SW2 whole entry) above
T2 sequence (Q16531 whole entry partner): as the sequence (Q16531 whole entry partner) above

IKZF2 = biological target: T3, IKZF2 (Homo sapiens, UniProt Q96SW2+Q9UKS7); test: Western-blot assay, substrate protein degradation in hPBMCs: IKZF2; format: cell-based; details: for substrate protein remaining % IKZF2: 24 hours of compound treatment, 50 nM and 500 nM; for IKZF2 substrate protein remaining %: compounds at 50 nM and 500 nM, 24 hours
T3 construct: effects of the compounds of the present disclosure on the expression of target proteins in cells; endogenous in cells; host or cells: human PBMCs (hPBMCs)
T3 sequence (Q9UKS7 whole entry): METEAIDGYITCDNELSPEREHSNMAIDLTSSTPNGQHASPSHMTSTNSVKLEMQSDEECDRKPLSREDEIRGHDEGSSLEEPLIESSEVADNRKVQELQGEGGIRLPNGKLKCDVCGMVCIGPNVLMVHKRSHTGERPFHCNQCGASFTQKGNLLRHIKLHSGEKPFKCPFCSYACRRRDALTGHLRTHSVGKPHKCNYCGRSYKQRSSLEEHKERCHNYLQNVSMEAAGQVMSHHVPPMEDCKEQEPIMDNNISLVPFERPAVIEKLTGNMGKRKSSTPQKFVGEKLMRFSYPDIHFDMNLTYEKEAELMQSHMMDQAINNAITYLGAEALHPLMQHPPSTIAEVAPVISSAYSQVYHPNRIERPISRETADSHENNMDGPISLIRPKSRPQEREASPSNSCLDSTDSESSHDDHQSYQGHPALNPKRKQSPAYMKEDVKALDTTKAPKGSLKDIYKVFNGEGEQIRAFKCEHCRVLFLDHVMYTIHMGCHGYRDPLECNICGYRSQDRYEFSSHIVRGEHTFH
T3 sequence (Q96SW2 whole entry): as the sequence (Q96SW2 whole entry) above
T3 sequence (Q16531 whole entry partner): as the sequence (Q16531 whole entry partner) above

IKZF3 = biological target: T4, IKZF3 (Homo sapiens, UniProt Q96SW2+Q9UKT9); test: Western-blot assay, substrate protein degradation in hPBMCs: IKZF3; format: cell-based; details: for substrate protein remaining % IKZF3: 24 hours of compound treatment, 50 nM and 500 nM; for IKZF3 substrate protein remaining %: compounds at 50 nM and 500 nM, 24 hours
T4 construct: effects of the compounds of the present disclosure on the expression of target proteins in cells; endogenous in cells; host or cells: human PBMCs (hPBMCs)
T4 sequence (Q9UKT9 whole entry): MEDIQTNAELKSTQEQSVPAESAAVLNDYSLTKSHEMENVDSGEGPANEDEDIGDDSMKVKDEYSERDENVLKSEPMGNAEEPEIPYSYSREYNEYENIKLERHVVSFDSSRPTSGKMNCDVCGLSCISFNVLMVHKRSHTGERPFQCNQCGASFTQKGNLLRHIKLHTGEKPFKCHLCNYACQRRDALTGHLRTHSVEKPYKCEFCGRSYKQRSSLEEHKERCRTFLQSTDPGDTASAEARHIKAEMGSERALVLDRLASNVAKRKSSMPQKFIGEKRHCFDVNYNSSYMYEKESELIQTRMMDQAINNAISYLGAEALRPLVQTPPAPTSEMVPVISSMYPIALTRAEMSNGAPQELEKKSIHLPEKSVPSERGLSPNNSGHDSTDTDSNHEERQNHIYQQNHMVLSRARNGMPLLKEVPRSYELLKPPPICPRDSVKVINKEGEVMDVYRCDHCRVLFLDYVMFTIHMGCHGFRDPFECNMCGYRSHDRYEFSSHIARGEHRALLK
T4 sequence (Q96SW2 whole entry): as the sequence (Q96SW2 whole entry) above
T4 sequence (Q16531 whole entry partner): as the sequence (Q16531 whole entry partner) above

CK1α = biological target: T5, CK1α (Homo sapiens, UniProt P48729+Q96SW2); test: Western-blot assay, substrate protein degradation in hPBMCs: CK1α; format: cell-based; details: for substrate protein remaining % CK1α: 24 hours of compound treatment, 50 nM and 500 nM; for CK1α substrate protein remaining %: compounds at 50 nM and 500 nM, 24 hours
T5 construct: effects of the compounds of the present disclosure on the expression of target proteins in cells; endogenous in cells; host or cells: human PBMCs (hPBMCs)

GSPT1 = biological target: T6, GSPT1 (Homo sapiens, UniProt P15170+Q96SW2); test: Western-blot assay, substrate protein degradation in hPBMCs: GSPT1; format: cell-based; details: for substrate protein remaining % GSPT1: 24 hours of compound treatment, 50 nM and 500 nM; for GSPT1 substrate protein remaining %: compounds at 50 nM and 500 nM, 24 hours
T6 construct: effects of the compounds of the present disclosure on the expression of target proteins in cells; endogenous in cells; host or cells: human PBMCs (hPBMCs)
T6 sequence (P15170 whole entry): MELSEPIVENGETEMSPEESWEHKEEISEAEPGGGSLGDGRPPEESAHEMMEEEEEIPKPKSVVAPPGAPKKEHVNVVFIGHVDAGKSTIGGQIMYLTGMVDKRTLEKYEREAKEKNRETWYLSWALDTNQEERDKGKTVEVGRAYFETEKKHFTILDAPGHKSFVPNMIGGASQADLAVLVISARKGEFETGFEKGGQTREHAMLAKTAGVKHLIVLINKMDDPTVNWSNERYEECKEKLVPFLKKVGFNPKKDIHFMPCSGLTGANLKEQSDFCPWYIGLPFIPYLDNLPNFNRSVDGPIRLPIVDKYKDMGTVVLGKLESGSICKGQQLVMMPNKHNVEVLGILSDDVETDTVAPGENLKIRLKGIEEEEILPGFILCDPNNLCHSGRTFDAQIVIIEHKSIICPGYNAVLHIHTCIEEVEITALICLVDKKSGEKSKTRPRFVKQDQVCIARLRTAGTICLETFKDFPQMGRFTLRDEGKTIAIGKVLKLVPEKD
T6 sequence (Q96SW2 whole entry): as the sequence (Q96SW2 whole entry) above
T6 sequence (Q16531 whole entry partner): as the sequence (Q16531 whole entry partner) above

MV-4-11 = test: Cell viability assay (CellTiter-Meiluncell Luminescent), tumor cell proliferation, MV-4-11; details: Homo sapiens, MV4-11, 96 h; for inhibition at 0.01 µM: read-out: Inhibition Rate at 10 nM (%); for inhibition at 0.5 µM: read-out: Inhibition Rate at 500 nM (%); for IC50: read-out: inhibitory activity (IC50, nM) against tumor cells proliferation, MV-4-11

| Compound | IC50 (MV-4-11) | substrate protein remaining % WEE1 (WEE1) | substrate protein remaining % IKZF1 (IKZF1) | substrate protein remaining % IKZF2 (IKZF2) | substrate protein remaining % IKZF3 (IKZF3) | substrate protein remaining % CK1α (CK1α) | substrate protein remaining % GSPT1 (GSPT1) | inhibition at 0.01 µM (MV-4-11) | inhibition at 0.5 µM (MV-4-11) | WEE1 substrate protein remaining % (WEE1) | IKZF1 substrate protein remaining % (IKZF1) | IKZF2 substrate protein remaining % (IKZF2) | IKZF3 substrate protein remaining % (IKZF3) | CK1α substrate protein remaining % (CK1α) | GSPT1 substrate protein remaining % (GSPT1) |
| --- | --- | --- | --- | --- | --- | --- | --- | --- | --- | --- | --- | --- | --- | --- | --- |
| O=C1CCN(N2Cc3cc(CN4CCN(c5ncnc6sc(-c7ccccc7)cc56)CC4)ccc3C2=O)C(=O)N1 [GT-08064, 1-(1-oxo-5-((4-(6-phenylthieno[2,3-d]pyrimidin-4-yl)piperazin-1-yl)methyl)isoindolin-2-yl)dihydropyrimidine-2,4(1H,3H)-dione] | – | B (80%< substrate protein remaining %≤ 100%) | B (80%< substrate protein remaining %≤ 100%) | A (0% ≤ substrate protein remaining % ≤ 80%) | B (80%< substrate protein remaining %≤ 100%) | B (80%< substrate protein remaining %≤ 100%) | B (80%< substrate protein remaining %≤ 100%) | 25 to 30% | 10 to 18% | – | – | – | – | – | – |
| O=C1CCN(N2Cc3cc(CN4CCC(c5cccc(C(F)(F)F)c5)CC4)ccc3C2=O)C(=O)N1 [GT-06892, 1-(1-oxo-5-((4-(3-(trifluoromethyl)phenyl)piperidin-1-yl)methyl)isoindolin-2-yl)dihydropyrimidine-2,4(1H,3H)-dione] | 500 to 1000 nM | – | – | – | – | – | – | – | – | B ("B" is defined as 80%< substrate protein remaining %≤ 100%) | A ("A" is defined as 0% ≤ substrate protein remaining % ≤ 80%) | A ("A" is defined as 0% ≤ substrate protein remaining % ≤ 80%) | B ("B" is defined as 80%< substrate protein remaining %≤ 100%) | B ("B" is defined as 80%< substrate protein remaining %≤ 100%) | A ("A" is defined as 0% ≤ substrate protein remaining % ≤ 80%) |
| O=C1CCN(N2Cc3cc(CN4CCN(c5ccc(F)cc5)CC4)ccc3C2=O)C(=O)N1 [GT-06702, 1-(5-((4-(4-fluorophenyl)piperazin-1-yl)methyl)-1-oxoisoindolin-2-yl)dihydropyrimidine-2,4(1H,3H)-dione] | 500 to 1000 nM | – | – | – | – | – | – | – | – | B ("B" is defined as 80%< substrate protein remaining %≤ 100%) | B ("B" is defined as 80%< substrate protein remaining %≤ 100%) | B ("B" is defined as 80%< substrate protein remaining %≤ 100%) | B ("B" is defined as 80%< substrate protein remaining %≤ 100%) | A ("A" is defined as 0% ≤ substrate protein remaining % ≤ 80%) | A ("A" is defined as 0% ≤ substrate protein remaining % ≤ 80%) |
| O=C1CCN(N2Cc3cc(CN4CCN(c5ncnc6sc7c(c56)CCCC7)CC4)ccc3C2=O)C(=O)N1 [GT-08077, 1-(1-oxo-5-((4-(5,6,7,8-tetrahydrobenzo[4,5]thieno[2,3-d]pyrimidin-4-yl)piperazin-1-yl)methyl)isoindolin-2-yl)dihydropyrimidine-2,4(1H,3H)-dione] | – | B (80%< substrate protein remaining %≤ 100%) | B (80%< substrate protein remaining %≤ 100%) | B (80%< substrate protein remaining %≤ 100%) | B (80%< substrate protein remaining %≤ 100%) | A (0% ≤ substrate protein remaining % ≤ 80%) | A (0% ≤ substrate protein remaining % ≤ 80%) | 25 to 30% | 25 to 30% | – | – | – | – | – | – |
| O=C1CCN(N2Cc3cc(CN4CCC(c5cccc(Br)c5)CC4)ccc3C2=O)C(=O)N1 [GT-06885, 1-(5-((4-(3-bromophenyl)piperidin-1-yl)methyl)-1-oxoisoindolin-2-yl)dihydropyrimidine-2,4(1H,3H)-dione] | 100 to 300 nM | – | – | – | – | – | – | – | – | B ("B" is defined as 80%< substrate protein remaining %≤ 100%) | A ("A" is defined as 0% ≤ substrate protein remaining % ≤ 80%) | A ("A" is defined as 0% ≤ substrate protein remaining % ≤ 80%) | B ("B" is defined as 80%< substrate protein remaining %≤ 100%) | B ("B" is defined as 80%< substrate protein remaining %≤ 100%) | A ("A" is defined as 0% ≤ substrate protein remaining % ≤ 80%) |
| O=C1CCN(N2Cc3cc(CN4CCN(c5ccc(Cl)cc5)CC4)ccc3C2=O)C(=O)N1 [GT-06765, 1-(5-((4-(4-chlorophenyl)piperazin-1-yl)methyl)-1-oxoisoindolin-2-yl)dihydropyrimidine-2,4(1H,3H)-dione] | 500 to 1000 nM | – | – | – | – | – | – | – | – | B ("B" is defined as 80%< substrate protein remaining %≤ 100%) | B ("B" is defined as 80%< substrate protein remaining %≤ 100%) | B ("B" is defined as 80%< substrate protein remaining %≤ 100%) | B ("B" is defined as 80%< substrate protein remaining %≤ 100%) | A ("A" is defined as 0% ≤ substrate protein remaining % ≤ 80%) | B ("B" is defined as 80%< substrate protein remaining %≤ 100%) |
| O=C1CCN(N2Cc3cc(CN4CCN(c5cc(Cl)ccc5Cl)CC4)ccc3C2=O)C(=O)N1 [GT-06773, 1-(5-((4-(2,5-dichlorophenyl)piperazin-1-yl)methyl)-1-oxoisoindolin-2-yl)dihydropyrimidine-2,4(1H,3H)-dione] | 100 to 300 nM | – | – | – | – | – | – | – | – | A ("A" is defined as 0% ≤ substrate protein remaining % ≤ 80%) | B ("B" is defined as 80%< substrate protein remaining %≤ 100%) | A ("A" is defined as 0% ≤ substrate protein remaining % ≤ 80%) | A ("A" is defined as 0% ≤ substrate protein remaining % ≤ 80%) | A ("A" is defined as 0% ≤ substrate protein remaining % ≤ 80%) | A ("A" is defined as 0% ≤ substrate protein remaining % ≤ 80%) |
| O=C1CCN(N2Cc3cc(CN4CCC(c5ccccc5)CC4)ccc3C2=O)C(=O)N1 [GT-06884, 1-(1-oxo-5-((4-phenylpiperidin-1-yl)methyl)isoindolin-2-yl)dihydropyrimidine-2,4(1H,3H)-dione] | 500 to 1000 nM | – | – | – | – | – | – | – | – | B ("B" is defined as 80%< substrate protein remaining %≤ 100%) | B ("B" is defined as 80%< substrate protein remaining %≤ 100%) | B ("B" is defined as 80%< substrate protein remaining %≤ 100%) | B ("B" is defined as 80%< substrate protein remaining %≤ 100%) | B ("B" is defined as 80%< substrate protein remaining %≤ 100%) | A ("A" is defined as 0% ≤ substrate protein remaining % ≤ 80%) |

Second part, led by results:

| IC50 (MV-4-11) | Compound | substrate protein remaining % WEE1 (WEE1) | substrate protein remaining % IKZF1 (IKZF1) | substrate protein remaining % IKZF2 (IKZF2) | substrate protein remaining % IKZF3 (IKZF3) | substrate protein remaining % CK1α (CK1α) | substrate protein remaining % GSPT1 (GSPT1) | inhibition at 0.01 µM (MV-4-11) | inhibition at 0.5 µM (MV-4-11) | WEE1 substrate protein remaining % (WEE1) | IKZF1 substrate protein remaining % (IKZF1) | IKZF2 substrate protein remaining % (IKZF2) | IKZF3 substrate protein remaining % (IKZF3) | CK1α substrate protein remaining % (CK1α) | GSPT1 substrate protein remaining % (GSPT1) |
| --- | --- | --- | --- | --- | --- | --- | --- | --- | --- | --- | --- | --- | --- | --- | --- |
| 500 to 1000 nM | O=C1CCN(N2Cc3cc(CN4CCN(c5ccccc5Br)CC4)ccc3C2=O)C(=O)N1 [GT-06766, 1-(5-((4-(2-bromophenyl)piperazin-1-yl)methyl)-1-oxoisoindolin-2-yl)dihydropyrimidine-2,4(1H,3H)-dione] | – | – | – | – | – | – | – | – | A ("A" is defined as 0% ≤ substrate protein remaining % ≤ 80%) | A ("A" is defined as 0% ≤ substrate protein remaining % ≤ 80%) | A ("A" is defined as 0% ≤ substrate protein remaining % ≤ 80%) | A ("A" is defined as 0% ≤ substrate protein remaining % ≤ 80%) | A ("A" is defined as 0% ≤ substrate protein remaining % ≤ 80%) | A ("A" is defined as 0% ≤ substrate protein remaining % ≤ 80%) |
| 300 to 500 nM | O=C1CCN(N2Cc3cc(CN4CCN(c5cccc(F)c5F)CC4)ccc3C2=O)C(=O)N1 [GT-06777, 1-(5-((4-(2,3-difluorophenyl)piperazin-1-yl)methyl)-1-oxoisoindolin-2-yl)dihydropyrimidine-2,4(1H,3H)-dione] | – | – | – | – | – | – | – | – | A ("A" is defined as 0% ≤ substrate protein remaining % ≤ 80%) | B ("B" is defined as 80%< substrate protein remaining %≤ 100%) | A ("A" is defined as 0% ≤ substrate protein remaining % ≤ 80%) | B ("B" is defined as 80%< substrate protein remaining %≤ 100%) | A ("A" is defined as 0% ≤ substrate protein remaining % ≤ 80%) | A ("A" is defined as 0% ≤ substrate protein remaining % ≤ 80%) |
| 500 to 1000 nM | O=C1CCN(N2Cc3cc(CN4CCN(c5ccccc5Cl)CC4)ccc3C2=O)C(=O)N1 [GT-06703, 1-(5-((4-(2-chlorophenyl)piperazin-1-yl)methyl)-1-oxoisoindolin-2-yl)dihydropyrimidine-2,4(1H,3H)-dione] | – | – | – | – | – | – | – | – | B ("B" is defined as 80%< substrate protein remaining %≤ 100%) | B ("B" is defined as 80%< substrate protein remaining %≤ 100%) | B ("B" is defined as 80%< substrate protein remaining %≤ 100%) | B ("B" is defined as 80%< substrate protein remaining %≤ 100%) | A ("A" is defined as 0% ≤ substrate protein remaining % ≤ 80%) | A ("A" is defined as 0% ≤ substrate protein remaining % ≤ 80%) |

— patent EP4722207A1, “OXOISOINDOLINYL-SUBSTITUTED TETRAHYDROPYRIMIDINEDIONE DERIVATIVE AND USE THEREOF” (Gluetacs Therapeutics (Shanghai) Co., Ltd., priority 2023, dated 2024)
